Calls of active or inactive are those of the source. How the calls were made is not given here.

The values that follow come from PubChem BioAssay AID1259407 (Chemical Carcinogenesis Research Information System (CCRIS), 2018).

The test system of the data set is CCRIS mutagenicity, Ames/micronucleus/aberration tests. Description: CCRIS mutagenicity studies.
The mark [1] stands for this setting: Test System: AMES SALMONELLA TYPHIMURIUM, Strain/Indicator: TA98, Metabolic Activation: NONE, Method: PREINCUBATION
Setting [2] is: Test System: AMES SALMONELLA TYPHIMURIUM, Strain/Indicator: TA100, Metabolic Activation: NONE, Method: PREINCUBATION
Setting [3] is: Test System: AMES SALMONELLA TYPHIMURIUM, Strain/Indicator: TA100, Metabolic Activation: NONE, Method: STANDARD PLATE.
Setting [4] is: Test System: AMES SALMONELLA TYPHIMURIUM, Strain/Indicator: TA100, Metabolic Activation: RAT, LIVER, S-9, AROCLOR 1254, Method: STANDARD PLATE.

With `N#Cc1ccccc1C#N`, the mutagenic call under setting [1] is “inactive; negative”; the mutagenic call (Test System: AMES SALMONELLA TYPHIMURIUM, Strain/Indicator: TA98, Metabolic Activation: RAT LIVER S-9, PHENOBARBITAL AND BETA-NAPHTHOFLAVONE, Method: PREINCUBATION) is “inactive; negative”; the mutagenic call under setting [2] was “inactive; negative”; the mutagenic call (Test System: AMES SALMONELLA TYPHIMURIUM, Strain/Indicator: TA100, Metabolic Activation: RAT LIVER S-9, PHENOBARBITAL AND BETA-NAPHTHOFLAVONE, Method: PREINCUBATION) was “inactive; negative”; the mutagenic call (Test System: AMES SALMONELLA TYPHIMURIUM, Strain/Indicator: TA1535, Metabolic Activation: NONE, Method: PREINCUBATION) was “inactive; negative”; the mutagenic call (Test System: AMES SALMONELLA TYPHIMURIUM, Strain/Indicator: TA1535, Metabolic Activation: RAT LIVER S-9, PHENOBARBITAL AND BETA-NAPHTHOFLAVONE, Method: PREINCUBATION) is “inactive; negative”. Further, the mutagenic call reads like this: (Test System: AMES SALMONELLA TYPHIMURIUM, Strain/Indicator: TA1537, Metabolic Activation: NONE, Method: PREINCUBATION) “inactive; negative”; (Test System: AMES SALMONELLA TYPHIMURIUM, Strain/Indicator: TA1537, Metabolic Activation: RAT LIVER S-9, PHENOBARBITAL AND BETA-NAPHTHOFLAVONE, Method: PREINCUBATION) “inactive; negative”; (Test System: AMES SALMONELLA TYPHIMURIUM, Strain/Indicator: TA1538, Metabolic Activation: NONE, Method: PREINCUBATION) “inactive; negative”; (Test System: AMES SALMONELLA TYPHIMURIUM, Strain/Indicator: TA1538, Metabolic Activation: RAT LIVER S-9, PHENOBARBITAL AND BETA-NAPHTHOFLAVONE, Method: PREINCUBATION) “inactive; negative”; (Test System: E.COLI, Strain/Indicator: WP2UVRA, Metabolic Activation: NONE, Method: PREINCUBATION) “inactive; negative”; (Test System: E.COLI, Strain/Indicator: WP2UVRA, Metabolic Activation: RAT LIVER S-9, PHENOBARBITAL AND BETA-NAPHTHOFLAVONE, Method: PREINCUBATION) “inactive; negative”.

With `CC(=O)CC1CCC(=O)/C=C\C(=O)OC(CC(C)=O)CCC(=O)/C=C\C(=O)O1` (stereo unspecified), the mutagenic call (Test System: CHINESE HAMSTER V-79, Strain/Indicator: V-79 (HPRT)/6-THIOGUANINE, Metabolic Activation: NONE) is “active; positive” and the mutagenic call (Test System: CHINESE HAMSTER V-79, Strain/Indicator: V-79 (HPRT)/6-THIOGUANINE, Metabolic Activation: RAT, LIVER, S-9, 3-METHYLCHOLANTHRENE) is “active; positive”.

In the case of `Cc1ccc(N(N)c2ccc(C)cc2)cc1`, the mutagenic call under setting [3] is “inactive; negative”; the mutagenic call under setting [4] is “active; positive”; the mutagenic call (Test System: AMES SALMONELLA TYPHIMURIUM, Strain/Indicator: TA102, Metabolic Activation: NONE, Method: STANDARD PLATE) was “active; positive”; the mutagenic call (Test System: AMES SALMONELLA TYPHIMURIUM, Strain/Indicator: TA102, Metabolic Activation: RAT, LIVER, S-9, AROCLOR 1254, Method: STANDARD PLATE) was “active; positive”.

As to `O=C(CCCN1CCC(O)(c2ccc(Cl)cc2)CC1)c1ccc(F)cc1`, the mutagenic call is “inactive; negative” (End Point: IN VITRO CHROMOSOMAL ABERRATIONS, Test System: HUMAN LYMPHOCYTES, Metabolic Activation: NONE); “inactive; negative” (End Point: IN VIVO CHROMOSOMAL ABERRATIONS, Test System: LYMPHOCYTES, Species: HUMAN, Strain/Sex: MALE, Route: ORAL); “inactive; negative” (Test System: AMES SALMONELLA TYPHIMURIUM, Strain/Indicator: TA98, Metabolic Activation: MOUSE, LIVER, S-9, AROCLOR 1254, Method: STANDARD PLATE); “inactive; negative” (Test System: AMES SALMONELLA TYPHIMURIUM, Strain/Indicator: TA98, Metabolic Activation: MOUSE, LIVER, S-9, Method: STANDARD PLATE); “inactive; negative” under setting [1]; “inactive; negative” (Test System: AMES SALMONELLA TYPHIMURIUM, Strain/Indicator: TA98, Metabolic Activation: NONE, Method: STANDARD PLATE). The mutagenic call (Test System: AMES SALMONELLA TYPHIMURIUM, Strain/Indicator: TA98, Metabolic Activation: RAT, LIVER, S-9, AROCLOR 1254, Method: PREINCUBATION) was “inactive; negative”; the mutagenic call (Test System: AMES SALMONELLA TYPHIMURIUM, Strain/Indicator: TA98, Metabolic Activation: RAT, LIVER, S-9, AROCLOR 1254, Method: STANDARD PLATE) was “inactive; negative”; the mutagenic call (Test System: AMES SALMONELLA TYPHIMURIUM, Strain/Indicator: TA100, Metabolic Activation: MOUSE, LIVER, S-9, AROCLOR 1254, Method: STANDARD PLATE) is “inactive; negative”; the mutagenic call (Test System: AMES SALMONELLA TYPHIMURIUM, Strain/Indicator: TA100, Metabolic Activation: MOUSE, LIVER, S-9, Method: STANDARD PLATE) is “inactive; negative”; the mutagenic call under setting [2] was “inactive; negative”; the mutagenic call under setting [3] is “inactive; negative”. Also, the mutagenic call is “inactive; negative” (Test System: AMES SALMONELLA TYPHIMURIUM, Strain/Indicator: TA100, Metabolic Activation: RAT, LIVER, S-9, AROCLOR 1254, Method: PREINCUBATION); “inactive; negative” under setting [4]; “inactive; negative” (Test System: AMES SALMONELLA TYPHIMURIUM, Strain/Indicator: TA1530, Metabolic Activation: MOUSE, LIVER, S-9, AROCLOR 1254, Method: STANDARD PLATE); “inactive; negative” (Test System: AMES SALMONELLA TYPHIMURIUM, Strain/Indicator: TA1530, Metabolic Activation: MOUSE, LIVER, S-9, Method: STANDARD PLATE); “inactive; negative” (Test System: AMES SALMONELLA TYPHIMURIUM, Strain/Indicator: TA1530, Metabolic Activation: NONE, Method: STANDARD PLATE); “inactive; negative” (Test System: AMES SALMONELLA TYPHIMURIUM, Strain/Indicator: TA1530, Metabolic Activation: RAT, LIVER, S-9, AROCLOR 1254, Method: STANDARD PLATE). The mutagenic call is “inactive; negative” (Test System: AMES SALMONELLA TYPHIMURIUM, Strain/Indicator: TA1535, Metabolic Activation: MOUSE, LIVER, S-9, AROCLOR 1254, Method: STANDARD PLATE); “inactive; negative” (Test System: AMES SALMONELLA TYPHIMURIUM, Strain/Indicator: TA1535, Metabolic Activation: MOUSE, LIVER, S-9, Method: STANDARD PLATE); “inactive; negative” (Test System: AMES SALMONELLA TYPHIMURIUM, Strain/Indicator: TA1535, Metabolic Activation: NONE, Method: STANDARD PLATE); “inactive; negative” (Test System: AMES SALMONELLA TYPHIMURIUM, Strain/Indicator: TA1535, Metabolic Activation: RAT, LIVER, S-9, AROCLOR 1254, Method: STANDARD PLATE); “inactive; negative” (Test System: AMES SALMONELLA TYPHIMURIUM, Strain/Indicator: TA1537, Metabolic Activation: NONE, Method: STANDARD PLATE); “inactive; negative” (Test System: AMES SALMONELLA TYPHIMURIUM, Strain/Indicator: TA1537, Metabolic Activation: RAT, LIVER, S-9, AROCLOR 1254, Method: STANDARD PLATE). In addition, the mutagenic call was “inactive; negative” (Test System: AMES SALMONELLA TYPHIMURIUM, Strain/Indicator: TA1538, Metabolic Activation: MOUSE, LIVER, S-9, AROCLOR 1254, Method: STANDARD PLATE); “inactive; negative” (Test System: AMES SALMONELLA TYPHIMURIUM, Strain/Indicator: TA1538, Metabolic Activation: MOUSE, LIVER, S-9, Method: STANDARD PLATE); “inactive; negative” (Test System: AMES SALMONELLA TYPHIMURIUM, Strain/Indicator: TA1538, Metabolic Activation: NONE, Method: STANDARD PLATE); “inactive; negative” (Test System: AMES SALMONELLA TYPHIMURIUM, Strain/Indicator: TA1538, Metabolic Activation: RAT, LIVER, S-9, AROCLOR 1254, Method: STANDARD PLATE).
